From patent US20250235543A1, “MODIFIED PROTEINS AND PROTEIN DEGRADERS” (Cullgen (Shanghai), Inc., priority 2021, published 2025)
Where two headings read alike, the source gives them in different places.

Key:
[1] = tested on: cyclin D1; assay: Cyclin D1 percentage degradation in Calu-1 cells (immunoblotting); type: cell-based; conditions: 16 hours
Outline: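 Cyclin D1 degradation was assessed by western blot. Clarified lysates, obtained by RIPA lysis with inhibitors and centrifugation at 13,000 rpm, were normalized by BCA protein assay and separated by SDS-PAGE. Bands were detected with Western ECL Substrate on a Bio-Rad ChemiDoc MP Imaging system and quantified in Image Lab software to derive percentage degradation.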

[2] = biological target: T1, CDK4 (Homo sapiens, UniProt P11802); assay: CDK4 percentage degradation in Calu-1 cells (immunoblotting); type: cell-based; conditions: for inhibition at 0.2 µM: read-out: CDK4 Degradation (200 nM); for inhibition at 10 µM: read-out: CDK4 Degradation (10 μM)
T1 construct: endogenous in cells; host or cells: Calu-1
T1 sequence (P11802 2-303 limits assumed): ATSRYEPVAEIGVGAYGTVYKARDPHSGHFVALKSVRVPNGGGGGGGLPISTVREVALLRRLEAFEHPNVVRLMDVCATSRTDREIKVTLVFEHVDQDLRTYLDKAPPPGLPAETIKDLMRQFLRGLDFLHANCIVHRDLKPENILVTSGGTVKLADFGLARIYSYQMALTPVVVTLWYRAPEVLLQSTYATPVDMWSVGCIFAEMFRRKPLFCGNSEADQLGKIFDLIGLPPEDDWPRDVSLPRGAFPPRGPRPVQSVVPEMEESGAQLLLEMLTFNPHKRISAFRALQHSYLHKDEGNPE
T1 sequence (P24385 whole entry partner): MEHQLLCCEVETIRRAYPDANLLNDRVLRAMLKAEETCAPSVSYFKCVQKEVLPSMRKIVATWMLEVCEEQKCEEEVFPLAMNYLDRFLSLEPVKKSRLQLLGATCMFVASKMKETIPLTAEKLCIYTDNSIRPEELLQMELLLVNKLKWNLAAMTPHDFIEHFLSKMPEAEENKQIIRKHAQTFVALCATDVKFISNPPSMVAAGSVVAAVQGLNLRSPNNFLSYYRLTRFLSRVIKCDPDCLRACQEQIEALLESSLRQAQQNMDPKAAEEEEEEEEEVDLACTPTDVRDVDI
T1 sequence (Q16531 2-1140 limits assumed, further chain): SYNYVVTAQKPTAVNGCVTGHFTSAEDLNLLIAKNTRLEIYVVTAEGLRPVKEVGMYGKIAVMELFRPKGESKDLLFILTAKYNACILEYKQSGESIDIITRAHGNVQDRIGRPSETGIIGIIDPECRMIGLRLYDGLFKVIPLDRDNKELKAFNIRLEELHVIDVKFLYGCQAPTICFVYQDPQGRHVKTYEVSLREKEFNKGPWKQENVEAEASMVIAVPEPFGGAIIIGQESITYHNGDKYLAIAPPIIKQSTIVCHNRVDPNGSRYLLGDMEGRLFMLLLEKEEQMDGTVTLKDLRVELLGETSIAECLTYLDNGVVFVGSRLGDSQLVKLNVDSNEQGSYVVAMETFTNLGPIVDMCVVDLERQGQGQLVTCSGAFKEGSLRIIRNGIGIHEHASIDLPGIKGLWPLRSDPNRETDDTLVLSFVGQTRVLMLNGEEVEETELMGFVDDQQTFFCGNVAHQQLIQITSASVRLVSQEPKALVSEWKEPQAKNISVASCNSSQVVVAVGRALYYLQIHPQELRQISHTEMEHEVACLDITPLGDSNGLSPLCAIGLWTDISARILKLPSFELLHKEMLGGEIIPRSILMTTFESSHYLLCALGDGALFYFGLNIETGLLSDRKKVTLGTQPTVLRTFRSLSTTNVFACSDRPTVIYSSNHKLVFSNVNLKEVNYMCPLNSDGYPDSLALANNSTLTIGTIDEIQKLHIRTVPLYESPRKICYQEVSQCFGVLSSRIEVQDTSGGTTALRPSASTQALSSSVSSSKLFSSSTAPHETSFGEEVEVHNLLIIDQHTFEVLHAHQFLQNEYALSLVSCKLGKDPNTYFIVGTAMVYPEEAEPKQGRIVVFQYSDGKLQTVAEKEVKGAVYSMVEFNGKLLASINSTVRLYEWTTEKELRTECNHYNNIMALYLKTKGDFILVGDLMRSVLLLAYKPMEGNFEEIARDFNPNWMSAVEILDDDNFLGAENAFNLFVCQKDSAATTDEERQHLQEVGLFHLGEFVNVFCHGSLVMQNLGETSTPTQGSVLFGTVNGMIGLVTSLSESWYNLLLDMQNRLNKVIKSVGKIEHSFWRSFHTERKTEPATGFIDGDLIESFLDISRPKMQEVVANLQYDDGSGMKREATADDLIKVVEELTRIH
Outline: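 CDK4 degradation was measured by immunoblotting. Cells were washed in cold PBS and lysed in RIPA buffer with inhibitors for 30 min at 4° C., then spun at 13,000 rpm to clear. After BCA protein determination, lysates were heated at 99° C. for 5 min in Laemmli buffer, resolved on SDS-PAGE, imaged on a ChemiDoc MP with ECL substrate, and band intensities quantified.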

inhibition at 0.2 µM ([2]; Calu-1 cells, 200 nM, 16 hours) [%]	inhibition at 10 µM ([2]; Calu-1 cells, 16 hours) [%]	Structure (SMILES)	CyclinD1 Degradation (200 nM) [1]	CyclinD1 Degradation (10 μM) [1]	inhibition at 0.2 µM ([2]; Calu-1, 16 h) [%]
	< 30	Cc1nc(NC(=O)c2ccccc2NC(=O)CCCNC(=O)CN2CCN(c3ccc(Nc4ncc5cc6n(c5n4)C4(CCCCC4)CNC6=O)nc3)CC2)sc1C [CPD-316, N-(4,5-Dimethylthiazol-2-yl)-2-(4-(2-(4-(6-((6′-oxo-7′,8′-dihydro-6′H-spiro[cyclohexane-1,9′-pyrazino[1′,2′:1,5]pyrrolo[2,3-d]pyrimidin]-2′-yl)amino)pyridin-3-yl)piperazin-1-yl)acetamido)butanamido)benzamide]		D (protein percentage degradation < 30%)	
> 80		CC(=O)c1c(C)c2cnc(Nc3ccc(N4CCN(CC(=O)NCCOCCOCCC(=O)Nc5ccccc5C(=O)Nc5ccc(N(C)C)nn5)CC4)cn3)nc2n(C2CCCC2)c1=O [CPD-185, 2-(3-(2-(2-(2-(4-(6-((6-Acetyl-8-cyclopentyl-5-methyl-7-oxo-7,8-dihydropyrido[2,3-d]pyrimidin-2-yl)amino)pyridin-3-yl)piperazin-1-yl)acetamido)ethoxy)ethoxy)propanamido)-N-(6-(dimethylamino)pyridazin-3-yl)benzamide]	A (protein percentage degradation >=80%)		
50 to 80		CC(=O)c1c(C)c2cnc(Nc3ccc(N4CCN(CC(=O)NCCOCCOCCC(=O)Nc5ccccc5C(=O)Nc5cnc(C)nc5)CC4)cn3)nc2n(C2CCCC2)c1=O [CPD-186, 2-(3-(2-(2-(2-(4-(6-((6-Acetyl-8-cyclopentyl-5-methyl-7-oxo-7,8-dihydropyrido[2,3-d]pyrimidin-2-yl)amino)pyridin-3-yl)piperazin-1-yl)acetamido)ethoxy)ethoxy)propanamido)-N-(2-methylpyrimidin-5-yl)benzamide]	B (protein percentage degradation <80%, and >=50%)		
50 to 80		CC(=O)c1c(C)c2cnc(Nc3ccc(N4CCN(CC(=O)NCCCCCNc5cc(Cl)ccc5C(=O)Nc5ccc(N(C)C)nn5)CC4)cn3)nc2n(C2CCCC2)c1=O [CPD-374, 2-((5-(2-(4-(6-((6-Acetyl-8-cyclopentyl-5-methyl-7-oxo-7,8-dihydropyrido[2,3-d]pyrimidin-2-yl)amino)pyridin-3-yl)piperazin-1-yl)acetamido)pentyl)amino)-4-chloro-N-(6-(dimethylamino)pyridazin-3-yl)benzamide]	A (protein percentage degradation >=80%)		
< 30		CC(=O)c1c(C)c2cnc(Nc3ccc(N4CCN(CC(=O)NCCCC(=O)Nc5ccccc5C(=O)Nc5nc(C)c(C)s5)CC4)cn3)nc2n(C2CCCC2)c1=O [CPD-171, 2-(4-(2-(4-(6-((6-Acetyl-8-cyclopentyl-5-methyl-7-oxo-7,8-dihydropyrido[2,3-d]pyrimidin-2-yl)amino)pyridin-3-yl)piperazin-1-yl)acetamido)butanamido)-N-(4,5-dimethylthiazol-2-yl)benzamide]	D (protein percentage degradation <30%)		
	< 30	Cc1nc(NC(=O)c2ccccc2NC(=O)CCOCCOCCOCCOCCOCCOCCNC(=O)CN2CCN(c3ccc(Nc4ncc(F)c(-c5cc(F)c6nc(C)n(C(C)C)c6c5)n4)nc3)CC2)sc1C [CPD-313, N-(4,5-Dimethylthiazol-2-yl)-2-(1-(4-(6-((5-fluoro-4-(4-fluoro-1-isopropyl-2-methyl-1H-benzo[d]imidazol-6-yl)pyrimidin-2-yl)amino)pyridin-3-yl)piperazin-1-yl)-2-oxo-6,9,12,15,18,21-hexaoxa-3-azatetracosan-24-amido)benzamide]		A (protein percentage degradation >= 80%)	

Further lines, the molecule ahead of its results:

Structure (SMILES)	inhibition at 0.2 µM ([2]; Calu-1 cells, 200 nM, 16 hours) [%]	inhibition at 10 µM ([2]; Calu-1 cells, 16 hours) [%]	CyclinD1 Degradation (200 nM) [1]	CyclinD1 Degradation (10 μM) [1]	inhibition at 0.2 µM ([2]; Calu-1, 16 h) [%]
CC(=O)c1c(C)c2cnc(Nc3ccc(N4CCN(CC(=O)NCCCCCCCNC(=O)c5ccc(C(=O)Nc6ncc(C)s6)c(C)c5)CC4)cn3)nc2n(C2CCCC2)c1=O [CPD-048, N^4-(7-(2-(4-(6-((6-Acetyl-8-cyclopentyl-5-methyl-7-oxo-7,8-dihydropyrido[2,3-d]pyrimidin-2-yl)amino)pyridin-3-yl)piperazin-1-yl)acetamido)heptyl)-2-methyl-N^1-(5-methylthiazol-2-yl)terephthalamide]	< 30		D (protein percentage degradation <30%)		
CC(=O)c1c(C)c2cnc(Nc3ccc(N4CCN(CC(=O)NCCOCCOCCOCCOCCNC(=O)c5ccc(C(=O)Nc6ncc(C)s6)c(C)c5)CC4)cn3)nc2n(C2CCCC2)c1=O [CPD-012, N^4-(1-(4-(6-((6-Acetyl-8-cyclopentyl-5-methyl-7-oxo-7,8-dihydropyrido[2,3-d]pyrimidin-2-yl)amino)pyridin-3-yl)piperazin-1-yl)-2-oxo-6,9,12,15-tetraoxa-3-azaheptadecan-17-yl)-2-methyl-N^1-(5-methylthiazol-2-yl)terephthalamide]	< 30		D (protein percentage degradation <30%)		
CCCCNc1ccc(C(=O)Nc2nc(C)c(C)s2)c(NC(=O)CCOCCOCCNC(=O)CN2CCN(c3ccc(Nc4ncc5c(C)c(C(C)=O)c(=O)n(C6CCCC6)c5n4)nc3)CC2)c1 [CPD-168, 2-(3-(2-(2-(2-(4-(6-((6-Acetyl-8-cyclopentyl-5-methyl-7-oxo-7,8-dihydropyrido[2,3-d]pyrimidin-2-yl)amino)pyridin-3-yl)piperazin-1-yl)acetamido)ethoxy)ethoxy)propanamido)-4-(butylamino)-N-(4,5-dimethylthiazol-2-yl)benzamide]	50 to 80		A (protein percentage degradation >=80%)		
CC(=O)c1c(C)c2cnc(Nc3ccc(N4CCN(CC(=O)NCCOCCOCCOCCNC(=O)c5ccc(C(=O)Nc6ncc(C)s6)c(C)c5)CC4)cn3)nc2n(C2CCCC2)c1=O [CPD-011, N^4-(1-(4-(6-((6-Acetyl-8-cyclopentyl-5-methyl-7-oxo-7,8-dihydropyrido[2,3-d]pyrimidin-2-yl)amino)pyridin-3-yl)piperazin-1-yl)-2-oxo-6,9,12-trioxa-3-azatetradecan-14-yl)-2-methyl-N^1-(5-methylthiazol-2-yl)terephthalamide]	< 30		D (protein percentage degradation <30%)		
CC(=O)c1c(C)c2cnc(Nc3ccc(N4CCN(CC(=O)NCCOCCOCCC(=O)Nc5ccccc5C(=O)Nc5ccc(F)cn5)CC4)cn3)nc2n(C2CCCC2)c1=O [CPD-081, 2-(3-(2-(2-(2-(4-(6-((6-Acetyl-8-cyclopentyl-5-methyl-7-oxo-7,8-dihydropyrido[2,3-d]pyrimidin-2-yl)amino)pyridin-3-yl)piperazin-1-yl)acetamido)ethoxy)ethoxy)propanamido)-N-(5-fluoropyridin-2-yl)benzamide]	> 80		A (protein percentage degradation >=80%)		
CC(=O)c1c(C)c2cnc(Nc3ccc(N4CCN(CC(=O)NCCOCCOCCC(=O)Nc5ccccc5C(=O)Nc5cc(C)n(C)n5)CC4)cn3)nc2n(C2CCCC2)c1=O [CPD-052, 2-(3-(2-(2-(2-(4-(6-((6-Acetyl-8-cyclopentyl-5-methyl-7-oxo-7,8-dihydropyrido[2,3-d]pyrimidin-2-yl)amino)pyridin-3-yl)piperazin-1-yl)acetamido)ethoxy)ethoxy)propanamido)-N-(1,5-dimethyl-1H-pyrazol-3-yl)benzamide]	50 to 80		A (protein percentage degradation >=80%)		
CC(=O)c1c(C)c2cnc(Nc3ccc(N4CCN(CC(=O)NCCOCCOCCC(=O)Nc5ccc(Br)cc5C(=O)Nc5nc(C)c(C)s5)CC4)cn3)nc2n(C2CCCC2)c1=O [CPD-145, 2-(3-(2-(2-(2-(4-(6-((6-Acetyl-8-cyclopentyl-5-methyl-7-oxo-7,8-dihydropyrido[2,3-d]pyrimidin-2-yl)amino)pyridin-3-yl)piperazin-1-yl)acetamido)ethoxy)ethoxy)propanamido)-5-bromo-N-(4,5-dimethylthiazol-2-yl)benzamide]	< 30		D (protein percentage degradation <30%)		
CC(=O)c1c(C)c2cnc(Nc3ccc(N4CCN(C(=O)CCOCCNc5ccc(C)c(C(=O)Nc6nc(C)c(C)s6)c5)CC4)cn3)nc2n(C2CCCC2)c1=O [CPD-110, 5-((2-(3-(4-(6-((6-Acetyl-8-cyclopentyl-5-methyl-7-oxo-7,8-dihydropyrido[2,3-d]pyrimidin-2-yl)amino)pyridin-3-yl)piperazin-1-yl)-3-oxopropoxy)ethyl)amino)-N-(4,5-dimethylthiazol-2-yl)-2-methylbenzamide]			D (protein percentage degradation <30%)		< 30
COc1ccc(NC(=O)c2ccccc2NC(=O)CCOCCOCCNC(=O)CN2CCN(c3ccc(Nc4ncc5c(C)c(C(C)=O)c(=O)n(C6CCCC6)c5n4)nc3)CC2)nn1 [CPD-085, 2-(3-(2-(2-(2-(4-(6-((6-Acetyl-8-cyclopentyl-5-methyl-7-oxo-7,8-dihydropyrido[2,3-d]pyrimidin-2-yl)amino)pyridin-3-yl)piperazin-1-yl)acetamido)ethoxy)ethoxy)propanamido)-N-(6-methoxypyridazin-3-yl)benzamide]	> 80		A (protein percentage degradation >=80%)		
CC(=O)c1c(C)c2cnc(Nc3ccc(N4CCN(CC(=O)NCCOCCOCCOCCNc5cccc(C(=O)Nc6nc(C)c(C)s6)c5C)CC4)cn3)nc2n(C2CCCC2)c1=O [CPD-105, 3-((1-(4-(6-((6-Acetyl-8-cyclopentyl-5-methyl-7-oxo-7,8-dihydropyrido[2,3-d]pyrimidin-2-yl)amino)pyridin-3-yl)piperazin-1-yl)-2-oxo-6,9,12-trioxa-3-azatetradecan-14-yl)amino)-N-(4,5-dimethylthiazol-2-yl)-2-methylbenzamide]	50 to 80		A (protein percentage degradation >=80%)		
